Test results from patent US10357036B2, “Compounds for controlling arthropods” (priority 2015, dated 2019).
Where two headings read alike, the source gives them in different places.

What was measured:
Ctenocephalides felis [1] = assay: Ctenocephalides felis in vitro contact test with adult cat fleas; format: in vivo; conditions: application rate 5 μg/cm^2 (=500 g/ha); after 48 h; dead or moribund fleas
How it was run: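 After 48 h at room temperature and ambient humidity, adult cat fleas (5–10 per tube) were scored, with motionless or uncoordinated fleas counted dead or moribund. Tubes had been coated with acetone solutions of compound, the 900 ppm solution giving 5 μg/cm². Efficacy: 100% means all fleas dead or moribund, 0% none harmed.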

Rhipicephalus sanguineus = Rhipicephalus sanguineus in vitro contact test with adult brown dog ticks; format: in vivo; conditions: after 48 h
How it was run: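 Efficacy, as % of ticks dead or moribund, was judged 48 h after placing 5-10 adult brown dog ticks in acetone-coated tubes (5 μg/cm^2 from 900 ppm) kept dark at room temperature. Ticks unable to climb away from a 45-50° C hotplate within 5 min counted as affected.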

[2] = system: cattle ticks (Boophilus microplus) Parkhurst strain, SP-resistant; assay: Boophilus microplus dip test; format: in vivo; conditions: 100 ppm; assessed after 7 days
Protocol: • Test animals: cattle ticks (Boophilus microplus) Parkhurst strain, SP-resistant • Solvent: dimethyl sulfoxide
10 mg of active ingredient are dissolved in 0.5 ml of dimethyl sulfoxide. To produce a suitable formulation, the active ingredient solution is diluted with water to the concentration desired in each case.
This active ingredient formulation is pipetted into tubes. 8-10 engorged adult female cattle ticks (Boophilus microplus) are transferred into a further tube with holes. The tube is immersed into the active ingredient formulation, and all the ticks are completely wetted. After the liquid has run out, the ticks are transferred on filter discs into plastic dishes and stored in a climate-controlled room.
Efficacy is assessed after 7 days by laying of fertile eggs. Eggs which are not visibly fertile are stored in a climate-controlled cabinet until the larvae hatch after about 42 days. An efficacy of 100% means that none of the ticks has laid any fertile eggs; 0% means that all the eggs are fertile.

Boophilus microplus = Boophilus microplus injection test; format: in vivo; conditions: 20 μg/animal; assessed after 7 days
Protocol: (§1) • Solvent: dimethyl sulfoxide
1 μl of the active ingredient solution is injected into the abdomen of 5 engorged adult female cattle ticks (Boophilus microplus). The animals are transferred into dishes and kept in a climate-controlled room.

Ctenocephalides felis [3] = assay: Ctenocephalides felis oral test; format: in vivo; conditions: 100 ppm in citrated cattle blood; after 2 days
Musca domestica = Musca domestica test; format: in vivo; conditions: 100 ppm; adult houseflies; after 2 days
Protocol: as §1
To produce a suitable active ingredient formulation, 10 mg of active ingredient are mixed with 0.5 ml of dimethyl sulfoxide, and the concentrate is diluted with water to the desired concentration.
Vessels containing a sponge treated with sugar solution and the active ingredient formulation of the desired concentration are populated with 10 adult houseflies (Musca domestica).

Spodoptera frugiperda = Spodoptera frugiperda spray test; format: in vivo; conditions: 100 g/ha, after 7 days; for pest or weed control at 100 g/ha: Spodoptera frugiperda, 168 h, read-out: efficacy
Tetranychus urticae [4] = assay: Tetranychus urticae spray test, OP-resistant (bean leaf discs); format: in vivo; conditions: 100 g/ha; after 6 days
Protocol: After 6 days, the efficacy in % is determined.

[5] = system: Anopheles gambiae strain RSPH (homozygot kdr); assay: whole plant or invertebrate; format: in vivo; conditions: read-out: efficacy (mortality)
Protocol: (§2) • Solvent: acetone+2000 ppm rapeseed oil methyl ester (RME)
(§3) To produce a suitable active compound formulation, the active compound is dissolved in the solvent (2 mg/ml). The active compound formulation is pipetted onto a glazed tile and, after it has dried off, adult mosquitoes of the species Anopheles gambiae strain RSPH (homozygot kdr) are placed onto the treated tile. The exposure time is 30 minutes.

[6] = system: Anopheles funestus strain FUMOZ-R; assay: whole plant or invertebrate; format: in vivo; conditions: read-out: efficacy (mortality)
Protocol: as §2
as §3, with “funestus” for “gambiae”, “FUMOZ-R (Hunt et al., Med Vet Entomol. 2005 September; 19 (3):271-5)” for “RSPH (homozygot kdr)”

[7] = system: Aedes aegypti strain MONHEIM; assay: whole plant or invertebrate; format: in vivo; conditions: read-out: efficacy (mortality)
Protocol: as §2
as §3, with “Aedes aegypti” for “Anopheles gambiae”, “MONHEIM” for “RSPH (homozygot kdr)”

Phaedon cochleariae = Phaedon cochleariae spray test; conditions: for pest or weed control at 100 g/ha: Phaedon cochleariae, 168 h, read-out: efficacy; for efficacy: 100 g/ha, after 7 days
[8] = system: Amaranthus retroflexus (AMARE); assay: Herbicidal activity, pre-emergence; format: in vivo; conditions: 1280 g/ha, 3 weeks
From the text: Seeds of monocotyledonous and dicotyledonous weed plants and crop plants were placed in wood-fibre pots in sandy loam and covered with soil. The compounds according to the invention, formulated as emulsion concentrates (EC), were then applied to the surface of the covering soil as an emulsion at a water application rate equating to 600 to 800 Uha with addition of 0.2% wetting agent.
After the treatment, the pots were placed in a greenhouse and kept under good growth conditions for the test plants. The damage to the test plants was scored visually after a test period of 3 weeks by comparison with untreated controls (herbicidal activity in percent (%): 100% activity=the plants have died, 0% activity=like control plants). Here, for example, compounds No. Ia-17, Ia-37, Ia-28 and Ia-56 at an application rate of 1280 g/ha each show 100% efficacy against Amaranthus retroflexus (AMARE) and with the exception of Ia-56, even against Viola tricolor (VIOTR). Furthermore, compounds no. Ia-17, Ia-37 and Ia-28 at the same application rate show an 80% or better efficacy against Matricaria inodorae (MATIN) and Ia-17 and Ia-37 even against Stellaria media (STEME).

Tetranychus urticae [9] = assay: Tetranychus urticae spray test, OP-resistant (bean plants); format: in vivo; conditions: 4 ppm; after 7 days
Protocol: To produce further test concentrations, the latter is diluted with emulsifier-containing water. When addition of ammonium salts and/or penetrants is required, these are each added at a concentration of 1000 ppm to the preparation solution.
Bean plants (Phaseolus vulgaris), which are heavily infested by all stages of the greenhouse red spider mite (Tetranychus urticae), are treated by being sprayed with the active compound preparation at the desired concentration.

[10] = application rate 5 μg/cm^2 (=500 g/ha), dead or moribund ticks
[11] = reversed-phase C18 HPLC column, logP, HPLC, C18, acetonitrile/water with formic acid (note a)
[12] = reversed-phase C18 HPLC column, logP^a, HPLC-MS method a)

SMILES	efficacy (Ctenocephalides felis [1])	efficacy (Rhipicephalus sanguineus; [10])	efficacy (laying of fertile eggs) [2]	efficacy (laying of fertile eggs) (Boophilus microplus)	efficacy (rate of extermination) (Ctenocephalides felis [3])	efficacy (rate of extermination) (Musca domestica)	pest or weed control at 100 g/ha (Spodoptera frugiperda)	mortality at 20 mg/m2 [7]	pest or weed control at 100 g/ha (Phaedon cochleariae)	chromatographic logP [11]	efficacy (Spodoptera frugiperda)	efficacy (Phaedon cochleariae)	efficacy (Tetranychus urticae [9])	also measured
CC(=S)NCc1cc(-c2cnn(-c3c(Cl)cc(C(F)(C(F)(F)F)C(F)(F)F)cc3Cl)c2)ccc1Cl [Ia-162, N-(2-chloro-5-{1-[2,6-dichloro-4-(1,1,1,2,3,3,3-heptafluoropropan-2-yl)phenyl]-1H-pyrazol-4-yl}benzyl)ethanethioamide]	100%	100%	80%	100%	100%	100%	100%	90 to 100%	100%	4.98	–	–	–	efficacy (Tetranychus urticae [4]): 100%; mortality at 20 mg/m2 [5]: 90 to 100%; mortality at 20 mg/m2 [6]: 90 to 100%; chromatographic logP (reversed-phase C18 HPLC column, logP^a, HPLC-MS method a), reversed-phase column (C18)): 4.98
O=C(NCc1cc(-c2cnn(-c3c(Cl)cc(C(F)(C(F)(F)F)C(F)(F)F)cc3OC(F)(F)F)c2)ccc1Cl)C1CC1 [Ia-56]	100%	–	–	100%	100%	100%	–	–	–	–	100%	100%	–	efficacy (Rhipicephalus sanguineus; application rate 1 μg/cm^2 (=100 g/ha)): 100%; herbicidal efficacy [8]: 100%
CC(=O)NCc1cc(-c2cnn(-c3c(Cl)cc(C(F)(C(F)(F)F)C(F)(F)F)cc3Cl)c2)ccc1Cl [Ia-05, N-(2-chloro-5-{1-[2,6-dichloro-4-(1,1,1,2,3,3,3-heptafluoropropan-2-yl)phenyl]-1H-pyrazol-4-yl}benzyl)acetamide]	100%	100%	–	100%	100%	100%	100%	90 to 100%	100%	4.13	–	–	–	mortality at 20 mg/m2 [5]: 90 to 100%; mortality at 100 mg/m2 [5]: 90 to 100%; mortality at 20 mg/m2 [6]: 90 to 100%; mortality at 100 mg/m2 [6]: 90 to 100%; mortality at 100 mg/m2 [7]: 90 to 100%; chromatographic logP [12]: 4.13
O=C(NCc1cc(-c2cn(-c3c(Cl)cc(C(F)(C(F)(F)F)C(F)(F)F)cc3Cl)cn2)ccc1F)C1CC1 [I-T2-04]	100%	–	100%	100%	100%	–	–	–	–	–	83%	100%	100%	–
CC(=O)NCc1cc(-c2cnn(-c3c(Cl)cc(C(F)(C(F)(F)F)C(F)(F)F)cc3OC(F)F)c2)ccc1Cl [Ia-53]	90%	100%	100%	100%	100%	100%	–	–	–	–	100%	100%	99%	–
CCC(=O)NCc1cc(-c2cnn(-c3c(Cl)cc(C(F)(C(F)(F)F)C(F)(F)F)cc3OC(F)F)c2)ccc1Cl [Ia-51]	100%	100%	100%	100%	100%	100%	–	–	–	–	100%	100%	99%	–
CC(=O)N(Cc1cc(-c2cnn(-c3c(Cl)cc(C(F)(C(F)(F)F)C(F)(F)F)cc3Cl)c2)ccc1Cl)C(C)=O [Ia-108, N-Acetyl-N-(2-chloro-5-{1-[2,6-dichloro-4-(1,1,1,2,3,3,3-heptafluoropropan-2-yl)phenyl]-1H-pyrazol-4-yl}benzyl)acetamide]	100%	80%	–	100%	100%	100%	100%	90 to 100%	100%	5.14	–	–	–	efficacy (Tetranychus urticae [4]): 90%; mortality at 100 mg/m2 [5]: 90 to 100%; mortality at 100 mg/m2 [7]: 90 to 100%; chromatographic logP [12]: 5.14
